The values below come from patent US8604021B2, “Substituted arylamine compounds and methods of treatment” (priority 2005, dated 2013).

As a reminder, the IC50 is the concentration that gives 50% inhibition.

Data set [1] is described as follows: Food intake and body weight in rats, sub-chronic dosing. To be noted: sub-chronic dosing 10 and 30 mg/kg qd, i.p. The data set is classed as in vivo.
The next data set addresses 5HT2A (Homo sapiens, UniProt P28223). Briefly: Compound Binding Profiles: 5HT2A. To be noted: * = Estimated IC50.
For a further data set, the target named is CYP3A4 (Homo sapiens, UniProt P08684). Briefly: CYP inhibition CYP3A4.
Chain of CYP3A4 (P08684 whole entry): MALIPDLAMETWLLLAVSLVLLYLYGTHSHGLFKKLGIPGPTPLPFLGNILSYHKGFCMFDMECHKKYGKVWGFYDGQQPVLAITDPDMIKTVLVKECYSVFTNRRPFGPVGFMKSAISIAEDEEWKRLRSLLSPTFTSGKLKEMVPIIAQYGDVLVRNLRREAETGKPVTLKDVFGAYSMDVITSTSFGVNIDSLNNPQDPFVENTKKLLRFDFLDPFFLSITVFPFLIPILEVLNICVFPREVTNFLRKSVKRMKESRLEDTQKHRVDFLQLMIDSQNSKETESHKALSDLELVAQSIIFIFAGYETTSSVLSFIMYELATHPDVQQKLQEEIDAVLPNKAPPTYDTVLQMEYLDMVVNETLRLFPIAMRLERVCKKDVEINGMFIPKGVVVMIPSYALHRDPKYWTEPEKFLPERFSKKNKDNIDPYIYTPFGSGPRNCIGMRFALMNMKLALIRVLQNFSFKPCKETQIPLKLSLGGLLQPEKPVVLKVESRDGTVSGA
In the next data set the target is T1, D4 (Homo sapiens, UniProt P21917).
T1 sequence (P21917 1-419): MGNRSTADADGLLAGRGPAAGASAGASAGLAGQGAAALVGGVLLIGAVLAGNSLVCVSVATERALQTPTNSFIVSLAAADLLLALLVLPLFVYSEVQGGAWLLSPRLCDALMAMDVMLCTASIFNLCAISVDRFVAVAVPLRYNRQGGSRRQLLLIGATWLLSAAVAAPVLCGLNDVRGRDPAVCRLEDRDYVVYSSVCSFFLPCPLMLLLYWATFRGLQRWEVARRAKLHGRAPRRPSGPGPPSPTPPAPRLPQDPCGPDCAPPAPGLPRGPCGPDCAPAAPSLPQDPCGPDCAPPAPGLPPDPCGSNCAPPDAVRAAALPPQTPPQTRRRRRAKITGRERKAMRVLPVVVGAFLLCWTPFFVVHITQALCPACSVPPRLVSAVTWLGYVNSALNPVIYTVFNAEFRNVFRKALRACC
As to the kind of experiment: Compound Binding Profiles: D4. To be noted: read-out: D4 binding class.

In another data set the target is D2 (Homo sapiens, UniProt P14416). Briefly: Compound Binding Profiles: D2. The following applies: * = Estimated IC50.
Chain of D2 (P14416 whole entry): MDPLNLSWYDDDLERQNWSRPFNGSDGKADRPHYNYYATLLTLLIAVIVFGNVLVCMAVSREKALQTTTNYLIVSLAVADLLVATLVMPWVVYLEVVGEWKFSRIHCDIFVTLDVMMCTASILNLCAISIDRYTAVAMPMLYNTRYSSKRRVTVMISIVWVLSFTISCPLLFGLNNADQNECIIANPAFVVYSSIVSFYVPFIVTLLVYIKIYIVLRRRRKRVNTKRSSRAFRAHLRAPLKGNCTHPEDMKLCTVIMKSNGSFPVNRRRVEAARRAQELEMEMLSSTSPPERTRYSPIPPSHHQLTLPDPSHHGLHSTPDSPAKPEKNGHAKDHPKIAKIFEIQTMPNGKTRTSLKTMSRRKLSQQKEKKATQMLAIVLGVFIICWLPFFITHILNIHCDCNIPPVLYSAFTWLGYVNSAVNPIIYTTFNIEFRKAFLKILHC
In the next data set the target is T2, M1 (Homo sapiens, UniProt P11229).
T2 sequence (P11229 1-460): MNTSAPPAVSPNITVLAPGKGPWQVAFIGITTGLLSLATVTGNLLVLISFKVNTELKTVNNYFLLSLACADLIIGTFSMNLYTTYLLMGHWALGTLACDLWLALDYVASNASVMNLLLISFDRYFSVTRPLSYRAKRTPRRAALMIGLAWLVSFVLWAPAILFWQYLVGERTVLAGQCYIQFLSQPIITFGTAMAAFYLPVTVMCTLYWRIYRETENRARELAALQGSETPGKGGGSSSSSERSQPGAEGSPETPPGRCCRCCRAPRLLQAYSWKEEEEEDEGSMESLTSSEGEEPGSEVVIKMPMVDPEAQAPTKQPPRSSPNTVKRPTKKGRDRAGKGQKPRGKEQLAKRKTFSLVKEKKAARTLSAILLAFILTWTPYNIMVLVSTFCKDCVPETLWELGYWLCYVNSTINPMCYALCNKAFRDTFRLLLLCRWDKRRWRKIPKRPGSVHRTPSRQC
Briefly: Compound Binding Profiles: M1. To be noted: * = Estimated IC50.

The target in another data set is H1 (Homo sapiens, UniProt P35367). As to the kind of experiment: Compound Binding Profiles: H1. The following applies: * = Estimated IC50.
Chain of H1 (P35367 whole entry): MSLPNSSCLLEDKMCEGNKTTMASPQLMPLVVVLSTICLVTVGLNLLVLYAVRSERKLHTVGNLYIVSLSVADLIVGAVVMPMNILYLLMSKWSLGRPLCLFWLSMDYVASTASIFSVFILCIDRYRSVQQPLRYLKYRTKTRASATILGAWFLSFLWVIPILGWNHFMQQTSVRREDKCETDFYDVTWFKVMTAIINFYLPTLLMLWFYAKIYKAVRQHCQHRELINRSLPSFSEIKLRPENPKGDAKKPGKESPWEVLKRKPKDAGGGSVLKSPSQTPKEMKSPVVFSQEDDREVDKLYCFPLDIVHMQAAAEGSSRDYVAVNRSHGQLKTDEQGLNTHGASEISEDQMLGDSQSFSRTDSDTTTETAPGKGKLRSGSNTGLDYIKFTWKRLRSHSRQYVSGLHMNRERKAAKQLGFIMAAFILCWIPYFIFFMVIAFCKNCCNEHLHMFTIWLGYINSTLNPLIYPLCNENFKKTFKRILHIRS

Chain of 5HT2A (P28223 whole entry, species assumed): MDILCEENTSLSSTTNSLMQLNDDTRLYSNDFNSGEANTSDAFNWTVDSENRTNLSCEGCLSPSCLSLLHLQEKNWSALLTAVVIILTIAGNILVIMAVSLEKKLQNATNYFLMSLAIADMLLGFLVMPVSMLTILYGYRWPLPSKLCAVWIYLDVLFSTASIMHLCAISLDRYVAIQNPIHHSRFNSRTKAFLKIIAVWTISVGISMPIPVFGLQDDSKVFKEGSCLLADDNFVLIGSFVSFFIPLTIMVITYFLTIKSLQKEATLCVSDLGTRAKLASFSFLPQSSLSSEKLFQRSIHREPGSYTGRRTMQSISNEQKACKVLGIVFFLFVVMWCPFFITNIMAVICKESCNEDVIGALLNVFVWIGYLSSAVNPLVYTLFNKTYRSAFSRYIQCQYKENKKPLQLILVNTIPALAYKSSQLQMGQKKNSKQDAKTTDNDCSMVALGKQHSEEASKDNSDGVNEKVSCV

In the case of `COc1cc(Cl)cc(C(C)Nc2cc(N3CCNCC3)ccc2S(C)(=O)=O)c1OC.Cl` (centres unmarked) [Compound A, [1-(5-Chloro-2,3-dimethoxy-phenyl)-ethyl]-(2-methanesulfonyl-5-piperazin-1-yl-phenyl)-amine hydrochloride], the body weight entry in data set [1] was “significant reduction”. Also, the food intake result in data set [1] is given as “significant reduction”. Besides, the IC50 is 2.5 µM at 5HT2A; greater than 7.5 µM on CYP3A4; 9 µM on D2; 3.4 µM on M1; 22 µM on H1. The Ki at D4 lay in the range of 0.1 to 1 µM.
